From ChEMBL document CHEMBL3351453 (2014)
Active and inactive are the calls of the source. No cut-off for these calls is given here.

Columns and labels:
BFTC-905 = settings: Homo sapiens, at 20 to 80 µM
Description: Cytotoxicity against human BFTC905 cells assessed as reduction in cell viability at 20 to 80 uM after 24 hrs by MTT assay

RKO = settings: Homo sapiens, at 20 to 80 µM
Description: Cytotoxicity against human RKO cells assessed as reduction in cell viability at 20 to 80 uM after 24 hrs by MTT assay

A549 [1] = experiment: Cytotoxicity against human A549 cells assessed as cell viability at >40 uM after 24 hrs by MTT assay relative to gefitinib; format: functional
A549 [2] = experiment: Cytotoxicity against human A549 cells assessed as cell viability at 10 uM after 24 hrs by MTT assay (reference value: 100%); format: functional; settings: A549, 24 h, read-out: Activity
A549 [3] = experiment: Cytotoxicity against human A549 cells assessed as cell viability at 60 uM after 24 hrs by MTT assay (reference value: 100%); format: functional; settings: A549, 24 h, read-out: Activity
A549 [4] = experiment: Cytotoxicity against human A549 cells assessed as cell viability at 80 uM after 24 hrs by MTT assay (reference value: 100%); format: functional; settings: A549, 24 h, read-out: Activity
A549 [5] = experiment: Cytotoxicity against human A549 cells assessed as cell viability at 40 uM after 24 hrs by MTT assay (reference value: 100%); format: functional; settings: A549, 24 h, read-out: Activity
A549 [6] = experiment: Cytotoxicity against human A549 cells assessed as cell viability at 20 uM after 24 hrs by MTT assay (reference value: 100%); format: functional; settings: A549, 24 h, read-out: Activity

Row | SMILES | inhibition (BFTC-905) | inhibition (RKO) | Ratio (A549 [1]) | also measured
1 | COc1cc2ncnc(Nc3ccc(F)c(Cl)c3)c2cc1OCCCN1CCN(C(=O)CCC(=O)O)CC1 | Active | Active |  | 
2 | COC(=O)CCC(=O)N1CCN(CCCOc2cc3c(Nc4ccc(F)c(Cl)c4)ncnc3cc2OC)CC1 | Active | Active |  | 
3 | CCCCCCCCCCCCOC(=O)CCC(=O)N1CCN(CCCOc2cc3c(Nc4ccc(F)c(Cl)c4)ncnc3cc2OC)CC1 |  |  | 15 | 
4 | COc1cc2ncnc(Nc3ccc(F)c(Cl)c3)c2cc1OCCCN1CCOC(=O)C1 |  |  |  | viability at 10 µM (A549 [2]): 96.1%; viability at 60 µM (A549 [3]): 94.1%; viability at 80 µM (A549 [4]): 94.9%; viability at 40 µM (A549 [5]): 91%; viability at 20 µM (A549 [6]): 93.1%
5 | CCCCCCCCCCCOC(=O)CCC(=O)N1CCN(CCCOc2cc3c(Nc4ccc(F)c(Cl)c4)ncnc3cc2OC)CC1 |  |  | 15 | 
6 | CCCCCCCCCCOC(=O)CCC(=O)N1CCN(CCCOc2cc3c(Nc4ccc(F)c(Cl)c4)ncnc3cc2OC)CC1 |  |  | 15 | 
